Laboratory results from patent US20240047019A1, “MODEL-FREE TIME-INVARIANT EVALUATION OF TRANSPORT AND EFFICACY OF CHEMICALS AND DRUGS” (Seqvera Ltd. Oy, priority 2022, published 2024).
Where two headings read alike, the source gives them in different places. Blank lines part the entries; values can stand above or below the molecule they belong to.

Assays:
[1] = gentamicin elution from coated Ti-6Al-4V disks into 2 mL distilled water at 37° C.; assay type: physicochemical; settings: for c2(t), gentamicin concentration in the target compartment: distilled water 37° C.; for Remained in the coating: of 1395 μg/disk
Procedure: In this example the most detailed in vitro testing conditions have been used. Disk of diameter 15.5 mm and thickness of 2 mm made of medical titanium Grade 5 (Ti-6Al-4V) alloy were uniformly coated with a mixture of 1395 μg/disk gentamicin palmitate and 3745 μg/disk palmitic acid in triplicate (9 disks=3 disks×3 repetitions).
Disks were placed into a glass tube filled with 2 mL distilled water at constant temperature 37° C. and aliquots of 0.050 mL were periodically extracted without refilling the remining volume. The concentration of gentamicin in these samples was measured in mg/L and based on this, the amount of gentamicin in the remaining solution was calculated. The procedure was repeated until 336 h have been accumulated, and the average of three measurements has been calculated, Table 5.
After 336 hours of measurements, totally 0.5 mL of liquid is removed and about 60 μg of the drug is taken off the system. This represents of 25% of the total liquid volume and about 23.5% of the total drug released from the disk. With unknown solubility from the beginning, it is difficult to say how this drug removal affects the solubility rate, diffusion rate (concentration gradient uneven) and about the release kinetics in general (besides just making a curve fitting). As liquid is being periodically removed, the VOD-2 in the target compartment is getting smaller from 2 mL to 1.5 mL (being not constant) and thus the concentration of gentamicin there (c2(t)) is affected too.
For the method of the present invention, exact VOD-1 for the source compartment has been first calculated. For the density of gentamicin palmitate of 1.5 g/cc and palmitic acid of 0.86 g/cc, taking into account the disk surface area of 188.69 mm^2, the expected dense coating thickness is about 28 μm at the beginning of the test, leading to the VOD-1 value (for the source compartment) of 5.285 mm^3. Since VOD-2 is not constant due to aliquots takeoffs, the coefficient of partition is not constant either and will change with time, approaching an equilibrium value (Leq).

[2] = tested on: L-type Ca^2+ current (ICa); assay: calcium current (ICa) changes in ventricular myocytes with NCX inhibitor; assay type: cell-based, canine
From the text: In this example the data from publication by Oravecz et.al. was used, where authors have attempted to clarify the underlying mechanism of the limited inotropic action of selective sodium-calcium exchange (NCX) inhibition by a novel inhibitor molecule (ORM-10962) on canine ventricular myocytes. […] The forward mode operation of NCX is considered as the main route of Ca^2+ removal balancing the Ca^2+influx generated by the L-type Ca^2+ current (ICa) and the reverse mode NCX activity. […] These experimental data have been analyzed in the present invention. […] In order to perform time convolution directly, the concentration of ORM-10962 should have been known in the target compartment, but here only the effect size (current measured) has been reported.

[3] = tested on: L-type Ca^2+ current (ICa); settings: steady-state conditions; cited from earlier work
[4] = caffeine transport in membrane-separated chip, control tests (bare membrane); assay type: in vitro ADME; settings: 0.25 mg/mL
Procedure: In this example data of caffeine transport measurements disclosed in publication are analyzed with a new method. […] The membrane had 0.4 micrometer pore size and was made of polyester track etched (PETE) insert, which was used bare (control tests) and with a double layer of cells (actual tests): human umbilical vein endothelial cells (HUVECs) and BeWo cells (derived from a human choriocarcinoma) to represent the endothelium in the fetal interface and the epithelium in the maternal interface. The mean data used are from three independent experiments.

[5] = tested on: placental barrier (HUVECs and BeWo cells); assay: caffeine transport in placenta-on-a-chip, actual tests (double cells layer); assay type: in vitro ADME, human; settings: 0.25 mg/mL
clinical = settings: human, in vivo
From the text: The method used in publication relies on fractional order derivatives with a multi-compartmental model using Laplace transform, which is not a common operation a lab technician usually able to perform. […] The resulting simplified equation for time changes of the concentration in the blood plasma (=the target compartment in the terminology of the recent invention), designated as c2(t) in [6], was expressed with six unknown parameters (d, k02, k21, α1, α2 and the lag time) as:
Clinical data of Popovic et al. have been used representing evaluation of diclofenac pharmacokinetics in a small number of healthy adults during a bioequivalence trial. In the spirit of the present invention, the data from were taken as cumulative concentration of diclofenac, averaged for all 12 patients. Here the initial mass of the drug was known of 100 mg, and the instant volume of distribution (VOD-2) was directly quantifiable by diving this mass for the measured cumulative concentration analyzed (Table 2).

[6] = cited from earlier work; for Tested c2(t): 100 mg, mean of 12, cumulative
[7] = least-squares fit in [6], slow release 100 mg tablet

Molecule: gentamicin palmitate
kinetic parameter β ([1]; not constant, FIG. 12): well below unity

Molecule: O=C(CN1CCC(O)CC1)Nc1ccc(Oc2ccc3c(c2)CCC(c2ccccc2)O3)nc1 (stereo not shown) [ORM-10962]
efficacy parameter LCa ([2]; ICa change per μM of the added drug): 42.123 nA/μM
characteristic time ([2]; calcium current in myocytes): 1.69 s
non-dimensional transport constant K ([2]; calcium current in myocytes): 104.5
reduction of ICa amplitude in the presence vs. absence of the inhibitor [3]: significantly greater

Molecule: Cn1c(=O)c2c(ncn2C)n(C)c1=O [caffeine]
Characteristic time τ [4]: 40 min
Transport constant K [4]: 162.77
kinetic parameter β [4]: 2.0-2.9
Coefficient of partition Leq ([4]; Control (no cells)): 5.61
Coefficient of partition Leq ([5]; Actual (double cells layer)): 35.5
Characteristic time τ ([5]; human): 27 min
Transport constant K ([5]; human): 6697.34
kinetic parameter β ([5]; human): 3.2-5.4

kinetic parameter β (clinical): > 1
Vd at 1 h (clinical; 100 mg): 522 L
Vd at 1.5 h (clinical; 100 mg): 56.1 L
Vd at 2 h (clinical; 100 mg): 21.2 L
Vd at 2.5 h (clinical; 100 mg): 13.7 L
Vd at 3 h (clinical; 100 mg): 10.5 L
Vd at 4 h (clinical; 100 mg): 8.97 L
Vd at 6 h (clinical; 100 mg): 8.11 L
Vd at 8 h (clinical; 100 mg): 7.78 L
Vd at 12 h (clinical; 100 mg): 7.75 L
Vd at 24 h (clinical; 100 mg): 7.69 L
Calculated c2(t) (clinical; 1 h): 0.141 mg/mL
Calculated c2(t) (clinical; 1.5 h): 1.216 mg/mL
Dr (generalized Deborah rate number) (clinical; 1.5 h): 644.65 ×10^6
kinetic parameter β (clinical; 1.5 h): 5.538
Calculated c2(t) (clinical; 2 h): 3.818 mg/mL
Dr (generalized Deborah rate number) (clinical; 2 h): 244.03 ×10^6
kinetic parameter β (clinical; 2 h): 4.884
Calculated c2(t) (clinical; 2.5 h): 6.832 mg/mL
Dr (generalized Deborah rate number) (clinical; 2.5 h): 124.66 ×10^6
kinetic parameter β (clinical; 2.5 h): 4.480
Calculated c2(t) (clinical; 3 h): 9.093 mg/mL
Dr (generalized Deborah rate number) (clinical; 3 h): 75.67 ×10^6
kinetic parameter β (clinical; 3 h): 4.256
Calculated c2(t) (clinical; 4 h): 11.349 mg/mL
Dr (generalized Deborah rate number) (clinical; 4 h): 37.46 ×10^6
kinetic parameter β (clinical; 4 h): 3.875
Calculated c2(t) (clinical; 6 h): 12.560 mg/mL
Dr (generalized Deborah rate number) (clinical; 6 h): 16.35 ×10^6
kinetic parameter β (clinical; 6 h): 3.388
Calculated c2(t) (clinical; 8 h): 12.846 mg/mL
Dr (generalized Deborah rate number) (clinical; 8 h): 10.07 ×10^6
kinetic parameter β (clinical; 8 h): 3.266
Calculated c2(t) (clinical; 12 h): 13.001 mg/mL
Dr (generalized Deborah rate number) (clinical; 12 h): 5.80 ×10^6
kinetic parameter β (clinical; 12 h): 3.471
Calculated c2(t) (clinical; 24 h): 13.073 mg/mL
Dr (generalized Deborah rate number) (clinical; 24 h): 3.07 ×10^6
kinetic parameter β (clinical; 24 h): 3.388
Molecule: O=C(O)Cc1ccccc1Nc1c(Cl)cccc1Cl [diclofenac]
Tested c2(t) ([6]; 1.0 h): 0.192 mg/mL
Tested c2(t) ([6]; 1.5 h): 1.783 mg/mL
Tested c2(t) ([6]; 2.0 h): 4.725 mg/mL
Tested c2(t) ([6]; 2.5 h): 7.283 mg/mL
Tested c2(t) ([6]; 3 h): 9.500 mg/mL
Tested c2(t) ([6]; 4 h): 11.150 mg/mL
Tested c2(t) ([6]; 6 h): 12.333 mg/mL
Tested c2(t) ([6]; 8 h): 12.858 mg/mL
Tested c2(t) ([6]; 12 h): 12.900 mg/mL
Tested c2(t) ([6]; 24 h): 13.000 mg/mL
fitted parameter d of fractional compartmental model [6, 7]: 22.79±16.41
fitted parameter k02 of fractional compartmental model [6, 7]: 1.51±1.05

Sample gentamicin amount, Average ([1]; average of S1-S3, 1 h): 187.2 µg
Sample gentamicin amount, Average ([1]; average of S1-S3, 3 h): 221.2 µg
Sample gentamicin amount, Average ([1]; average of S1-S3, 6 h): 171.9 µg
Sample gentamicin amount, Average ([1]; average of S1-S3, 24 h): 191.1 µg
Sample gentamicin amount, Average ([1]; average of S1-S3, 48 h): 195.1 µg
Sample gentamicin amount, Average ([1]; average of S1-S3, 72 h): 189.4 µg
Sample gentamicin amount, Average ([1]; average of S1-S3, 96 h): 199.9 µg
Sample gentamicin amount, Average ([1]; average of S1-S3, 168 h): 241.0 µg
Sample gentamicin amount, Average ([1]; average of S1-S3, 264 h): 247.5 µg
Sample gentamicin amount, Average ([1]; average of S1-S3, 336 h): 255.3 µg
c2(t), gentamicin concentration in the target compartment ([1]; 1 h): 93.6 mg/L
c2(t), gentamicin concentration in the target compartment ([1]; 3 h): 113.4 mg/L
c2(t), gentamicin concentration in the target compartment ([1]; 6 h): 90.5 mg/L
c2(t), gentamicin concentration in the target compartment ([1]; 24 h): 103.3 mg/L
c2(t), gentamicin concentration in the target compartment ([1]; 48 h): 108.4 mg/L
c2(t), gentamicin concentration in the target compartment ([1]; 72 h): 108.3 mg/L
c2(t), gentamicin concentration in the target compartment ([1]; 96 h): 117.6 mg/L
c2(t), gentamicin concentration in the target compartment ([1]; 168 h): 146.1 mg/L
c2(t), gentamicin concentration in the target compartment ([1]; 264 h): 154.7 mg/L
c2(t), gentamicin concentration in the target compartment ([1]; 336 h): 164.7 mg/L
Remained in the coating ([1]; 1 h): 1207.8 µg
Remained in the coating ([1]; 3 h): 1173.8 µg
Remained in the coating ([1]; 6 h): 1223.1 µg
Remained in the coating ([1]; 24 h): 1203.9 µg
Remained in the coating ([1]; 48 h): 1199.9 µg
Remained in the coating ([1]; 72 h): 1205.6 µg
Remained in the coating ([1]; 96 h): 1195.1 µg
Remained in the coating ([1]; 168 h): 1154.0 µg
Remained in the coating ([1]; 264 h): 1147.5 µg
Remained in the coating ([1]; 336 h): 1139.7 µg
Molecule: gentamicin
